pIC50: −log10 of the molar value.
Experiments:
Format in all cases: biochemical
FGFR1 = molecular target: T1, FGFR1 (Homo sapiens, UniProt P11362); assay: Kinase inhibition assay (33P transfer), FGFR1; settings: read-out: FGFR1-1
T1 construct: Kinases are expressed as either kinase domains or full length constructs; made in house

AKT = molecular target: T2, AKT (Homo sapiens, UniProt Q9Y243); assay: Kinase inhibition assay (33P transfer), AKT; settings: Table 2, kinase inhibition class; read-out: AKT3-1
T2 construct: Kinases are expressed as either kinase domains or full length constructs; made in house
Method in brief: (§1)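 Recombinant kinase-domain or full-length fusion proteins (GST or His tag) served as enzyme. Substrate poly(Glu,Tyr) 4:1 or poly(Arg,Ser) 3:1 was bound to the plate; transferred 33P was read by liquid scintillation following acid washing.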

EGFR = molecular target: T3, EGFR (Homo sapiens, UniProt P00533); assay: Kinase inhibition assay (33P transfer), EGFR; settings: Table 2, kinase inhibition class; read-out: EGFR-1
T3 construct: Kinases are expressed as either kinase domains or full length constructs; made in house
Method in brief: (§2)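 Radiometric format: recombinant tagged kinase (catalytic domain or whole protein, sometimes combined with regulatory polypeptides) phosphorylates immobilised poly(Glu,Tyr) 4:1 or poly(Arg,Ser) 3:1 using [33P]ATP. Wells are washed in 0.5% phosphoric acid, then counted. IC50 is taken where substrate labelling falls by half.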

Lck = molecular target: T4, Lck (Homo sapiens, UniProt P06239); assay: Kinase inhibition assay (33P transfer), Lck; settings: Table 3; read-out: Lck-1
T4 construct: Kinases are expressed as either kinase domains or full length constructs; made in house
T4 sequence (P06239 whole entry, species assumed, the tested form may be a part): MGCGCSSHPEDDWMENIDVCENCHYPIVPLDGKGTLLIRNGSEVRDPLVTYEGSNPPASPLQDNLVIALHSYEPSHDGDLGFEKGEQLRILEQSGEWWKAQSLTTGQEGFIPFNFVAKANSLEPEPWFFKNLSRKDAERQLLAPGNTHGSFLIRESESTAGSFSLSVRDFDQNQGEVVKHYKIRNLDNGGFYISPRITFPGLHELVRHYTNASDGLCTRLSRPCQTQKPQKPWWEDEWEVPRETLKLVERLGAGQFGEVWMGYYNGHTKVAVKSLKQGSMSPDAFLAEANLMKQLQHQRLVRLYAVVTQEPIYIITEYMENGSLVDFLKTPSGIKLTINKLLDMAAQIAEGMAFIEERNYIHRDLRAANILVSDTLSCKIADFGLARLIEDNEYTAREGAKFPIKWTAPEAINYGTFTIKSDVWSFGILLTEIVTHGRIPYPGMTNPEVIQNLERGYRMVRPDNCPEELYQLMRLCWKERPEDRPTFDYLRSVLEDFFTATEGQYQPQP
Method in brief: as §1

Hck-1 = molecular target: T5, Hck-1 (Homo sapiens, UniProt P08631); assay: Kinase inhibition assay (33P transfer), Hck; settings: Table 6, Hck-1 kinase inhibition class
T5 construct: Kinases are expressed as either kinase domains or full length constructs; made in house
T5 sequence (P08631 whole entry, the tested form may be a part): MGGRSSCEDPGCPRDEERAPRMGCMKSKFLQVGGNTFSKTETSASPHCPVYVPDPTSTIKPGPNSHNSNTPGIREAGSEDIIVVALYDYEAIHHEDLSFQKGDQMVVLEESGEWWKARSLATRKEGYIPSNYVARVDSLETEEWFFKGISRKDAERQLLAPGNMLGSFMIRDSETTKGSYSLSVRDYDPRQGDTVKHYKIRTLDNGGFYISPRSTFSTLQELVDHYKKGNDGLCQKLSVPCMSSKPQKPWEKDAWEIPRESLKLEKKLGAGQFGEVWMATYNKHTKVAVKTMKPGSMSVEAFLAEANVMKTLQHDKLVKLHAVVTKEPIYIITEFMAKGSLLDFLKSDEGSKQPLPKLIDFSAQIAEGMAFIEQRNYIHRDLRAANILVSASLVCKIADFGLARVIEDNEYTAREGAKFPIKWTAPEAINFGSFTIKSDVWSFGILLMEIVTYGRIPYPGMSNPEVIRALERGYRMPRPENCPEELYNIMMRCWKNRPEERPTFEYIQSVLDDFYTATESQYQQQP

EPHB4 = molecular target: T6, EPHB4 (Homo sapiens, UniProt P54760); assay: Kinase inhibition assay (33P transfer), EPHB4; settings: read-out: EPHB4-1
T6 construct: Kinases are expressed as either kinase domains or full length constructs; made in house
T6 sequence (P54760 16-987): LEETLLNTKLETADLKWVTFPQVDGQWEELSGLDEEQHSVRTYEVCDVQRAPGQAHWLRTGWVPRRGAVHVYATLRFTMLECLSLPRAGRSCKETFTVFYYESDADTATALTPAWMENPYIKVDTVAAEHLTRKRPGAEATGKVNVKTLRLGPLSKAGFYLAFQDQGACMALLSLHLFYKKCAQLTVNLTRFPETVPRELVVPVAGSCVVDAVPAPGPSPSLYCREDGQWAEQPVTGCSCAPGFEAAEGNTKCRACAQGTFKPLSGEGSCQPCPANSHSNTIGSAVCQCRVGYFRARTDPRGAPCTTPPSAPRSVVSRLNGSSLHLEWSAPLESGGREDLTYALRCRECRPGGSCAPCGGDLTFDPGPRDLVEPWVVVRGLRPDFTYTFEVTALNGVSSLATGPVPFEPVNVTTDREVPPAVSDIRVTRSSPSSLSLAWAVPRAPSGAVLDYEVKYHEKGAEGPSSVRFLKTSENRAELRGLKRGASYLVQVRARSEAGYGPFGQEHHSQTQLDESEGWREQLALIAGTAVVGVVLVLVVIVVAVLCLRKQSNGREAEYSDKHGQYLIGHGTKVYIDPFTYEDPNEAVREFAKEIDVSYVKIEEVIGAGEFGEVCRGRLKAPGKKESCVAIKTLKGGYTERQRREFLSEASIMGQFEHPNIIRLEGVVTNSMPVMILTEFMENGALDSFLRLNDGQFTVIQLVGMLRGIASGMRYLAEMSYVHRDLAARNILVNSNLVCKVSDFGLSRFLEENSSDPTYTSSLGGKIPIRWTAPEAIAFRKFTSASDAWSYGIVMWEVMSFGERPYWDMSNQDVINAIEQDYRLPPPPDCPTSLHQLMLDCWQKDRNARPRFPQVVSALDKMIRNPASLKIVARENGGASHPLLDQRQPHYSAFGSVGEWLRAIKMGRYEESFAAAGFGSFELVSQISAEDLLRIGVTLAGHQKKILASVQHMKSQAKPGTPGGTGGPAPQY

Flt-1 = molecular target: T7, Flt-1 (Homo sapiens, UniProt P17948); assay: Kinase inhibition assay (33P transfer), Flt-1
T7 construct: Kinases are expressed as either kinase domains or full length constructs; made in house
Method in brief: as §2

PDGFRB = molecular target: T8, PDGFRB (Homo sapiens, UniProt P09619); assay: Kinase inhibition assay (33P transfer), PDGFRB; settings: read-out: PDGFRB-1
T8 construct: Kinases are expressed as either kinase domains or full length constructs; made in house
T8 sequence (P09619 33-1106, species assumed): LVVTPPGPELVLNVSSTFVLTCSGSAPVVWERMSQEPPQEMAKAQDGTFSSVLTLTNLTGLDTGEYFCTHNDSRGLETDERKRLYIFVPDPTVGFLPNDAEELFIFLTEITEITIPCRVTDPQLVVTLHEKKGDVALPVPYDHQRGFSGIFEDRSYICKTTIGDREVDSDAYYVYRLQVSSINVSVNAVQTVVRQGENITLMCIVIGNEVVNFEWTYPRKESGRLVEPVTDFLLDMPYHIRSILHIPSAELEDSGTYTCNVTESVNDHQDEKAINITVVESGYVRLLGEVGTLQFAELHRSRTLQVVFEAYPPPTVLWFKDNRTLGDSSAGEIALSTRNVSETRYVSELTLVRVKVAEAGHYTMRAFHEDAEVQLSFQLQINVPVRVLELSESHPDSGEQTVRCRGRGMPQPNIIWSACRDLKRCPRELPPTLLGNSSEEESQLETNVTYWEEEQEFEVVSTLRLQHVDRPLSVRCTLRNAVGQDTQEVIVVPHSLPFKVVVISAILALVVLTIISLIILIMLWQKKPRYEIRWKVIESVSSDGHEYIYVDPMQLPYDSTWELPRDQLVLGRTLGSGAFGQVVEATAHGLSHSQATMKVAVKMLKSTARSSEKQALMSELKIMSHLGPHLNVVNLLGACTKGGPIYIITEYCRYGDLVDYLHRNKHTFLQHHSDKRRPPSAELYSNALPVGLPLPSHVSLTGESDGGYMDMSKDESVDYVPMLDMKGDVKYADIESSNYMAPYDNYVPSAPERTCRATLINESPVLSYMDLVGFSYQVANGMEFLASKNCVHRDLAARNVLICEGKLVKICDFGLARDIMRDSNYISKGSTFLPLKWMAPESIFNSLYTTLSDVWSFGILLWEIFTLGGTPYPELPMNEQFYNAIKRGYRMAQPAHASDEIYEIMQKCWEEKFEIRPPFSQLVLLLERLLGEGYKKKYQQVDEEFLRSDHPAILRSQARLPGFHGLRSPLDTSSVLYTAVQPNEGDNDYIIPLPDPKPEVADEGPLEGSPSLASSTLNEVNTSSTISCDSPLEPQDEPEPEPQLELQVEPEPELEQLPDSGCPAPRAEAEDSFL

c-Met = molecular target: T9, c-Met (Homo sapiens, UniProt P08581); assay: Kinase inhibition assay (33P transfer), c-Met; settings: Table 2, kinase inhibition class; read-out: Met-1
T9 construct: Kinases are expressed as either kinase domains or full length constructs; made in house
T9 sequence (P08581 25-1390): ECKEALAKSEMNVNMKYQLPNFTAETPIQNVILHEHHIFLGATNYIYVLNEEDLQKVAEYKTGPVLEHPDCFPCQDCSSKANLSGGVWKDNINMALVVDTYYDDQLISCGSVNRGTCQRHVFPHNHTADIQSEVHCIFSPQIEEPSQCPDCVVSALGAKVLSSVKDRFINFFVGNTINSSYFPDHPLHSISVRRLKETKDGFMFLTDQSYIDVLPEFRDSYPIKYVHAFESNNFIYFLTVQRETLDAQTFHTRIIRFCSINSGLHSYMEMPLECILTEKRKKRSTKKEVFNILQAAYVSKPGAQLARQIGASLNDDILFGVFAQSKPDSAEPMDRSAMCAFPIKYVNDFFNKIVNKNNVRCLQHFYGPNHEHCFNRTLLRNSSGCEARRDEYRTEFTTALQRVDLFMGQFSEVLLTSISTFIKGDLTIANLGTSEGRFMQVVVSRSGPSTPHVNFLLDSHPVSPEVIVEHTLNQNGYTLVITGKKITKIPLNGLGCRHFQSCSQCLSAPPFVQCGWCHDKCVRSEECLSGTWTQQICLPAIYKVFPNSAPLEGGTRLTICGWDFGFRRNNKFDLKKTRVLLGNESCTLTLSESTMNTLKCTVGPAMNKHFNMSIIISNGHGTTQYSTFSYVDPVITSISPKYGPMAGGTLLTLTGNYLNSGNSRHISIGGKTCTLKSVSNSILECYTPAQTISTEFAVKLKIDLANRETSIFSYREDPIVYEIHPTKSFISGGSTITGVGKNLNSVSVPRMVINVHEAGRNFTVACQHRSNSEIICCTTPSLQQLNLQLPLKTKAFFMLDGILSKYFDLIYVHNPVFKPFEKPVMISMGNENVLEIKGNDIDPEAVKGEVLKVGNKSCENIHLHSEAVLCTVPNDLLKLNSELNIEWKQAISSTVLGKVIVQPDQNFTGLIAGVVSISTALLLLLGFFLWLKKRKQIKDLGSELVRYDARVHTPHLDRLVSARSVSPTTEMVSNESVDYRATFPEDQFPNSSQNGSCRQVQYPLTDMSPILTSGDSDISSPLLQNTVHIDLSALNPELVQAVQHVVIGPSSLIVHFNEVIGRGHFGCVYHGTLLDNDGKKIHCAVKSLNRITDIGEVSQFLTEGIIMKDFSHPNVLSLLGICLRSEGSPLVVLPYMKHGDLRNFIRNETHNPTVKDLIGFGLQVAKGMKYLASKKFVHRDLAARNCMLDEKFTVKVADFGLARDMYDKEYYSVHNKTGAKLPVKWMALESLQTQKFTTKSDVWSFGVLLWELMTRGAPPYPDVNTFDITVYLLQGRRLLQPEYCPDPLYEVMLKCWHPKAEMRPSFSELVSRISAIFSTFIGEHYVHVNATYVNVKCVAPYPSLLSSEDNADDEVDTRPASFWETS
Method in brief: as §2

Src = molecular target: T10, Src (Homo sapiens, UniProt P12931); assay: Kinase inhibition assay (33P transfer), Src; settings: Table 6, Src-1 kinase inhibition class
T10 construct: Kinases are expressed as either kinase domains or full length constructs; made in house
T10 sequence (P12931 whole entry, species assumed, the tested form may be a part): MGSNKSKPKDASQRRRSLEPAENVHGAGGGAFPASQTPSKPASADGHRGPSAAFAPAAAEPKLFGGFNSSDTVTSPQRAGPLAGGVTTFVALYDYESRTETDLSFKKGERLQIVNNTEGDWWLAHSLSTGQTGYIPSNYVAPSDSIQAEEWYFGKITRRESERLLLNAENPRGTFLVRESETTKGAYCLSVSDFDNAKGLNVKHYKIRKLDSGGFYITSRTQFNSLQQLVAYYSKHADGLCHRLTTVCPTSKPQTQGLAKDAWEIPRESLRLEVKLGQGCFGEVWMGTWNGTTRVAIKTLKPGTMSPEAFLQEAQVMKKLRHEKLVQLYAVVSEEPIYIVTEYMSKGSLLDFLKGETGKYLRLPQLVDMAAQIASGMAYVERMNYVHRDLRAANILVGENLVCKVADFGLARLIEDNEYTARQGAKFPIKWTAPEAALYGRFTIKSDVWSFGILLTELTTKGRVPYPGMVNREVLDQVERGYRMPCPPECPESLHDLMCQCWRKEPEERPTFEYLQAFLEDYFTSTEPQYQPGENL
Method in brief: as §2

Tek = molecular target: T11, Tek (Homo sapiens, UniProt Q02763); assay: Kinase inhibition assay (33P transfer), Tek; settings: read-out: Tek-1
T11 construct: Kinases are expressed as either kinase domains or full length constructs; made in house
Method in brief: as §2

T1 sequence (P11362 22-822, species assumed): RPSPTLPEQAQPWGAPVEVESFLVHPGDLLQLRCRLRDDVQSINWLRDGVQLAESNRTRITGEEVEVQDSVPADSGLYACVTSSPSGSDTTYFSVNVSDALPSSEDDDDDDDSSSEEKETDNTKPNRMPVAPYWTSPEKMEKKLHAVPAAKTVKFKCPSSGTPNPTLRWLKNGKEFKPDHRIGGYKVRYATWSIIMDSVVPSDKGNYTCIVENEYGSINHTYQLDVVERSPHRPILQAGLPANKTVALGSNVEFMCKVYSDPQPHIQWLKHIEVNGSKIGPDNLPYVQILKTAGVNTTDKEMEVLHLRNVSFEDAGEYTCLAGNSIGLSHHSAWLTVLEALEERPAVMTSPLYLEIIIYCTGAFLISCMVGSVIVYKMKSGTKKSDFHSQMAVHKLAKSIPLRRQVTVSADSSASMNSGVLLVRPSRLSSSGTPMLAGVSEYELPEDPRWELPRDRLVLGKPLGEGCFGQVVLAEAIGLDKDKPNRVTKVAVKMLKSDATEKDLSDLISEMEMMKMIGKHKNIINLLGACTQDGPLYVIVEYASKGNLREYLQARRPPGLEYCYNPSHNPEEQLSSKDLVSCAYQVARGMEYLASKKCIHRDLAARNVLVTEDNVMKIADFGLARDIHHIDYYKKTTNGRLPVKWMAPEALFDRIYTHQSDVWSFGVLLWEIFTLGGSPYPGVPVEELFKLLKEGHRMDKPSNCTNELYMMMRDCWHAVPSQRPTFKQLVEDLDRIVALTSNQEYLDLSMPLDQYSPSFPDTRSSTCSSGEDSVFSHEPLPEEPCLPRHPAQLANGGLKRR

Row | pIC50 (FGFR1) | pIC50 (AKT) | pIC50 (EGFR) | pIC50 (Lck) | pIC50 (Hck-1) | pIC50 (EPHB4) | pIC50 (Flt-1) | pIC50 (PDGFRB) | pIC50 (c-Met) | pIC50 (Src) | pIC50 (Tek) | SMILES
1 | 5.19 to 5.97 | < 4.92 | 5.19 to 5.97 | 5.03 to 5.19 | < 4.92 | 5.19 to 5.97 | 5.19 to 5.97 | 5.03 to 5.19 | 5.19 to 5.97 | < 4.92 | < 4.92 | O=C1OCc2ccc(Nc3ncnc(Nc4cc(-c5ccco5)n[nH]4)n3)cc21 [Compound 364]
2 | < 4.96 | < 4.96 | < 4.96 | 5.24 to 6.01 | < 4.96 | < 4.96 | < 4.96 | 4.96 to 5.07 | < 4.96 | < 4.96 | < 4.96 | COc1cc(Nc2ncnc(-c3ccnc(NCCCO)c3)n2)cc(OC)c1OC [Compound 180]
3 | > 6.11 | < 5.06 | < 5.06 | 5.33 to 6.11 | < 5.06 | 5.33 to 6.11 | > 6.11 | > 6.11 | 5.06 to 5.17 | < 5.06 | 5.06 to 5.17 | COc1cc(Nc2ncnc(-n3c(Nc4cccc(C(N)=O)c4)nc4ccccc43)n2)cc(OC)c1OC [Compound 377]
4 | 5.31 to 6.09 | < 5.03 | < 5.03 | 5.31 to 6.09 | < 5.03 | < 5.03 | > 6.09 | > 6.09 | 5.03 to 5.14 | < 5.03 | < 5.03 | COc1cc(Nc2ncnc(-n3c(Nc4ccc(F)cc4)nc4ccccc43)n2)cc(OC)c1OC [Compound 387]

Reference: patent US7074789B2, “Kinase inhibitors” (Amgen Inc., priority 1999, dated 2006)
